Experiments:
[1] = system: CFU-GM (Colony Forming Unit-Granulocyte Macrophage) progenitors from CD34+ cells; test: Colony assay in methylcellulose, CFU-GM; type: cell-based, human; conditions: CD34+ cells seeded in methylcellulose in the presence of compound; compared to untreated control
Procedure: CD34^+cells were obtained from leukapheresis samples after mobilization of donors after informed consent in agreement with our Institute Ethic Committee (Assistance Publique des Hôpitaux de Paris) and in accordance with the Declaration of Helsinki. CD34^+cells were isolated by a positive selection using an immunomagnetic cell sorting system (AutoMacs; Miltenyi Biotec, Bergisch Gladbach, Germany). 500 to 1000 normal CD34^+cells were plated either in 1% methylcellulose assay (StemCells technologies, Vancouver, Canada) to quantify erythroid (BFU-E) and granulo-monocytic (CFU-GM) progenitors or in serum-free fibrin clot assay for quantification of MK progenitors (CFU-MK) in the absence or presence of various concentration of SAR405838 or MI-219. Cultures in methylcellulose were stimulated by addition of human recombinant growth factors: G-CSF (20 ng/mL), IL-3 (10 ng/mL) SCF (25 ng/mL, Biovitrum AB, Stockholm, Sweden), IL-6 (10 ng/mL), FLT3 (10 ng/mL) and human EPO (1 U/mL). Cultures in fibrin clot were stimulated with 10 ng/mL TPO (Kirin Brewery, Tokyo, Japan) and 25 ng/mL SCF. […] CFU-MK colonies were enumerated at day 12 after labeling by an indirect immuno-alkaline phosphatase staining technique using an anti-CD41a monoclonal antibody (MoAb; Becton Dickinson, le Pont de Claix, France; clone HIP8), as previously described.

[2] = system: CFU-MK (Colony Forming Unit-Megakaryocyte) progenitors from CD34+ cells; test: Colony assay in fibrin clot, CFU-MK; type: cell-based, human; conditions: CD34+ cells seeded in fibrin clot in the presence of compound; compared to untreated control
Procedure: CD34^+cells were obtained from leukapheresis samples after mobilization of donors after informed consent in agreement with our Institute Ethic Committee (Assistance Publique des Hôpitaux de Paris) and in accordance with the Declaration of Helsinki. CD34^+cells were isolated by a positive selection using an immunomagnetic cell sorting system (AutoMacs; Miltenyi Biotec, Bergisch Gladbach, Germany). 500 to 1000 normal CD34^+cells were plated either in 1% methylcellulose assay (StemCells technologies, Vancouver, Canada) to quantify erythroid (BFU-E) and granulo-monocytic (CFU-GM) progenitors or in serum-free fibrin clot assay for quantification of MK progenitors (CFU-MK) in the absence or presence of various concentration of SAR405838 or MI-219. Cultures in methylcellulose were stimulated by addition of human recombinant growth factors: G-CSF (20 ng/mL), IL-3 (10 ng/mL) SCF (25 ng/mL, Biovitrum AB, Stockholm, Sweden), IL-6 (10 ng/mL), FLT3 (10 ng/mL) and human EPO (1 U/mL). Cultures in fibrin clot were stimulated with 10 ng/mL TPO (Kirin Brewery, Tokyo, Japan) and 25 ng/mL SCF. BFU-E and CFU-GM colonies were enumerated at day 14 of culture. […]

[3] = system: BFU-E (Burst Forming Unit-Erythroid) progenitors from CD34+ cells; test: Colony assay in methylcellulose, BFU-E; type: cell-based, human; conditions: CD34+ cells seeded in methylcellulose in the presence of compound; compared to untreated control
Procedure: CD34^+cells were obtained from leukapheresis samples after mobilization of donors after informed consent in agreement with our Institute Ethic Committee (Assistance Publique des Hôpitaux de Paris) and in accordance with the Declaration of Helsinki. CD34^+cells were isolated by a positive selection using an immunomagnetic cell sorting system (AutoMacs; Miltenyi Biotec, Bergisch Gladbach, Germany). 500 to 1000 normal CD34^+cells were plated either in 1% methylcellulose assay (StemCells technologies, Vancouver, Canada) to quantify erythroid (BFU-E) and granulo-monocytic (CFU-GM) progenitors or in serum-free fibrin clot assay for quantification of MK progenitors (CFU-MK) in the absence or presence of various concentration of SAR405838 or MI-219. Cultures in methylcellulose were stimulated by addition of human recombinant growth factors: G-CSF (20 ng/mL), IL-3 (10 ng/mL) SCF (25 ng/mL, Biovitrum AB, Stockholm, Sweden), IL-6 (10 ng/mL), FLT3 (10 ng/mL) and human EPO (1 U/mL). Cultures in fibrin clot were stimulated with 10 ng/mL TPO (Kirin Brewery, Tokyo, Japan) and 25 ng/mL SCF. BFU-E and CFU-GM colonies were enumerated at day 14 of culture. CFU-MK colonies were enumerated at day 12 after labeling by an indirect immuno-alkaline phosphatase staining technique using an anti-CD41a monoclonal antibody (MoAb; Becton Dickinson, le Pont de Claix, France; clone HIP8), as previously described.

[4] = system: Day 6 megakaryoblasts (ploidization); test: MK ploidy by flow cytometry (CD41/CD42/vital Hoechst staining); type: cell-based, human; conditions: day 6 megakaryoblasts treated 72 hours, analysed day 9; SAR405838 at 1 μM; untreated control 4.4 N
Procedure: First, we investigated if MDM2 inhibitors affect MK ploidization. SAR405838 induced a significant reduction in the mean ploidy (3.0 N at the dose of 1 μM versus 4.4 N for untreated control or for MI-219 treatment) (Supplementary Figure S1). page 1: P53 activation inhibits all types of hematopoietic progenitors and all stages of megakaryopoiesis SUPPLEMENTARY FIGURE Supplementary Figure S1: Effect of SAR405838 on polyploidization. Day 6 megakaryoblasts were treated for 72 hours with various doses of MI-219 or SAR405838. At day 9, ploidy was analyzed by flow cytometry using a CD41/CD42/vital Hoechst staining. N represents the mean ploidy. As shown, SAR405838 induced a significant reduction in the mean ploidy (3.0N at the dose of 1μM versus 4.4N for control or for MI-219 treatment). The Figure illustrates a representative experiment in triplicate. Two other experiments in triplicate gave similar results. […]

[5] = system: p53 pathway in megakaryocytes (MKs); test: p53 pathway proteins and transcripts in MKs (western-blot, qRT-PCR); type: cell-based, human; conditions: day 7-MKs (legend: day 10-MK), 5 μM for 24 or 48 hours
Procedure: We also explored the effects of p53 stabilization at a later stage of megakaryocytic differentiation. […] Day 7-MKs were treated with 5 μM Nutlin 3a for 24 or 48 hours, which led to an increase in p53, p21, BAX, BCL2 and BCL-XL levels, confirming a functional p53 activity (Figure 6A). […] Similar results were found with day 6-megakaryoblasts treated with two doses of SAR405838 for 72 hours (Figure 6D/6E) without any major effect on the percentage of CD41^+ cells (Figure 6F). […] As shown in Figure 6D/6E, at the dose of 0.5 μM the SAR405838 induced a 50% decreased in the number of viable cells while the apoptotic cells reached 50% of the total cells. We checked if the effect of SAR405838 on MKs could be reverted by the addition of high TPO doses. CD34^+ progenitors were cultured in serum-free medium supplemented with SCF and low dose of TPO (1 ng/mL) for 6 days. Day 6-megakaryoblasts were then treated with 1.5 μM of SAR405838 for 48 hours and various doses of TPO.
In parallel, the expression of P53, BAK, BCL2L1, NOXA, PUMA, BAX, P21 and P53 were quantified by qRT-PCR related to HPRT. C. […] (n=3). […]
PCRs were carried out in the ABI Prism GeneAmp 5700 (Perkin-Elmer) using the Power SYBR-Green PCR Master Mix (ABI) containing the specific primers. The expression levels of all genes were calculated relatively to HPRT or to PPIA housekeeping gene.
Proteins were quantified by Image J software.

[6] = set-up: method as in PMID 23084521, PMID 24309210; conditions: clinical and preclinical data in rats and monkeys; cited from earlier work

Compound: CC(C)(C)C[C@H]1N[C@@H](C(=O)NCC[C@H](O)CO)[C@H](c2cccc(Cl)c2)[C@@]12C(=O)Nc1cc(Cl)c(F)cc12.Cl [MI-219]
- dose inducing a 50% reduction of CFU-GM numbers [1]: significant less potent activity compared to SAR405838
- dose inducing a 50% reduction of CFU-MK numbers [2]: significant less potent activity compared to SAR405838
- dose inducing a 50% reduction of BFU-E numbers [3]: significant less potent activity compared to SAR405838
- mean ploidy [4]: 4.4 N

Compound: COc1ccc(C2=N[C@@H](c3ccc(Cl)cc3)[C@@H](c3ccc(Cl)cc3)N2C(=O)N2CCNC(=O)C2)c(OC(C)C)c1 [Nutlin 3a]
- p53, p21, BAX, BCL2 and BCL-XL levels (western-blot) [5]: increase

Compound: COc1ccc(C2=N[C@@H](c3ccc(Cl)cc3)[C@@H](c3ccc(Cl)cc3)N2C(=O)N2CCNC(=O)C2)c(OC(C)C)c1 [Nutlin]
- hematological adverse effect [6]: major thrombocytopenia

Compound: CCOc1cc(C(C)(C)C)ccc1C1=N[C@@](C)(c2ccc(Cl)cc2)[C@@](C)(c2ccc(Cl)cc2)N1C(=O)N1CCN(CCCS(C)(=O)=O)CC1 [RG7112]
- hematological adverse effect [6]: major thrombocytopenia
